Test results as given in US12458644B2, “Process for preparing solutions comprising biopterin derivatives” (VASOPHARM GMBH, priority 2014, dated 2025).
Structures can show the parent of a compound that is named as a salt.

What was measured:
experimental TBI = settings: literature: WO 2004/084906, Terpolilli et al. 2009; cited from earlier work
[1] = Stability of reconstituted solution of VAS203 in 50 mL PP syringe at room temperature; type: physicochemical; settings: for Further related substances, each / Further related substances, total / Purity (HPLC) (6R)-4-Amino-5,6,7,8-tetrahydro-L-biopterin / Purity (HPLC) (6S)-4-Amino-5,6,7,8-tetrahydro-L-biopterin / Related substances (HPLC) A: 4-Amino-7,8-dihydro-L-biopterin / Related substances (HPLC) B: Σ (6R)- and (6S)-5,6,7,8-Tetrahydro-L-biopterin / Related substances (HPLC) C: Σ 1-[(6R)- and (6S)-2,4-Diamino-5,6,7,8-tetrahydropteridin-6-yl]propanol / Reconstituted Solution pH / Assay (HPLC) (calculated on anhydrous and chloride-free basis): PP syringe; for Reconstituted Solution pH / Assay (HPLC) (calculated on anhydrous and chloride-free basis): reconstituted in 50 mL WFI; for Assay (HPLC) (calculated on anhydrous and chloride-free basis): day-light
Description: A stability study at room temperature was carried out for the drug substance VAS203 to test for any degradation of the reconstituted solution in transparent 50 mL polypropylene (PP) syringes which are used in clinical studies. During stability testing the PP syringes were exposed to normal day-light. Solution content, purity, related substances and pH were monitored for 48 hours (initial, 6, 24, 48 hours after preparation).

[2] = Stability of VAS203 dissolved in solution buffer at pH 7.4; type: physicochemical; settings: oxidises to 4-Amino-7,8-dihydro-L-biopterin and 4-Amino-L-biopterin
Description: At a pH of 7.4 4-Amino-(6R,S)-5,6,7,8-tetrahydro-L-biopterin dihydrochloride dihydrate (VAS203) dissolved in solution buffer is very unstable and oxidises in its two metabolites 4-Amino-7,8-dihydro-L-biopterin and 4-Amino-L-biopterin. Therefore, it is important that the VAS203 solution is prepared with degassed buffer and after preparation of the VAS203 solution the lyophilisation should be started without delay.

Q: For CC(O)C(O)C1CNc2nc(N)nc(N)c2N1 [4-Amino-5,6,7,8-tetrahydro-L-biopterin], which “Efficacy in experimental TBI” value (experimental TBI) is on record?
A: effective

Q: Which “Efficacy in experimental TBI” value (experimental TBI) does the source give for CC(O)C(O)C1=Nc2c(N)nc(N)nc2NC1 [4-Amino-7,8-dihydro-L-biopterin] here?
A: effective

Q: For CC(O)C(O)C1CNc2nc(N)nc(N)c2N1 [VAS203, 4-Amino-(6R,S)-5,6,7,8-tetrahydro-L-biopterin dihydrochloride dihydrate], which “Period over which reconstituted solution is stable” value ([1]; 50 mL PP syringe, room temperature, exposed to normal day-light) is on record?
A: 48 h

Q: And the “Further related substances, each” value ([1]; room temperature, 0 hours)?
A: 0.2 % area

Q: And the “Further related substances, total” value ([1]; room temperature, 0 hours)?
A: 0.5 % area

Q: And the “Purity (HPLC) (6R)-4-Amino-5,6,7,8-tetrahydro-L-biopterin” value ([1]; room temperature, 0 hours)?
A: 55.5 % area

Q: And the “Purity (HPLC) (6S)-4-Amino-5,6,7,8-tetrahydro-L-biopterin” value ([1]; room temperature, 0 hours)?
A: 39.0 % area

Q: And the “Related substances (HPLC) A: 4-Amino-7,8-dihydro-L-biopterin” value ([1]; room temperature, 0 hours)?
A: 3.3 % area

Q: What about the “Related substances (HPLC) B: Σ (6R)- and (6S)-5,6,7,8-Tetrahydro-L-biopterin” value (“Related substances (HPLC) B: Σ” for short) ([1]; room temperature, 0 hours) of the same compound?
A: 0.6 % area

Q: And the “Related substances (HPLC) C: Σ 1-[(6R)- and (6S)-2,4-Diamino-5,6,7,8-tetrahydropteridin-6-yl]propanol” value (“Related substances (HPLC) C” below) ([1]; room temperature, 0 hours)?
A: 1.5 % area

Q: What about the “Further related substances, each” value ([1]; room temperature, 6 hours) of the same compound?
A: 0.2 % area

Q: What about the “Further related substances, total” value ([1]; room temperature, 6 hours) of the same compound?
A: 0.6 % area

Q: And the “Purity (HPLC) (6R)-4-Amino-5,6,7,8-tetrahydro-L-biopterin” value ([1]; room temperature, 6 hours)?
A: 55.4 % area

Q: And the “Purity (HPLC) (6S)-4-Amino-5,6,7,8-tetrahydro-L-biopterin” value ([1]; room temperature, 6 hours)?
A: 38.5 % area

Q: And the “Related substances (HPLC) A: 4-Amino-7,8-dihydro-L-biopterin” value ([1]; room temperature, 6 hours)?
A: 3.8 % area

Q: And the “Related substances (HPLC) B: Σ” value ([1]; room temperature, 6 hours)?
A: 0.6 % area

Q: What about the “Related substances (HPLC) C” value ([1]; room temperature, 6 hours) of the same compound?
A: 1.6 % area

Q: What about the “Further related substances, each” value ([1]; room temperature, 24 hours) of the same compound?
A: 0.2 % area

Q: And the “Further related substances, total” value ([1]; room temperature, 24 hours)?
A: 0.6 % area

Q: What about the “Purity (HPLC) (6R)-4-Amino-5,6,7,8-tetrahydro-L-biopterin” value ([1]; room temperature, 24 hours) of the same compound?
A: 55.4 % area

Q: What about the “Purity (HPLC) (6S)-4-Amino-5,6,7,8-tetrahydro-L-biopterin” value ([1]; room temperature, 24 hours) of the same compound?
A: 38.4 % area

Q: What about the “Related substances (HPLC) A: 4-Amino-7,8-dihydro-L-biopterin” value ([1]; room temperature, 24 hours) of the same compound?
A: 3.8 % area

Q: And the “Related substances (HPLC) B: Σ” value ([1]; room temperature, 24 hours)?
A: 0.6 % area

Q: And the “Related substances (HPLC) C” value ([1]; room temperature, 24 hours)?
A: 1.5 % area

Q: What about the “Further related substances, each” value ([1]; room temperature, 48 hours) of the same compound?
A: 0.1 % area

Q: What about the “Further related substances, total” value ([1]; room temperature, 48 hours) of the same compound?
A: 0.4 % area

Q: What about the “Purity (HPLC) (6R)-4-Amino-5,6,7,8-tetrahydro-L-biopterin” value ([1]; room temperature, 48 hours) of the same compound?
A: 55.5 % area

Q: And the “Purity (HPLC) (6S)-4-Amino-5,6,7,8-tetrahydro-L-biopterin” value ([1]; room temperature, 48 hours)?
A: 38.1 % area

Q: And the “Related substances (HPLC) A: 4-Amino-7,8-dihydro-L-biopterin” value ([1]; room temperature, 48 hours)?
A: 4.1 % area

Q: What about the “Related substances (HPLC) B: Σ” value ([1]; room temperature, 48 hours) of the same compound?
A: 0.6 % area

Q: And the “Related substances (HPLC) C” value ([1]; room temperature, 48 hours)?
A: 1.5 % area

Q: What about the “Reconstituted Solution pH” value ([1]; room temperature, 0 hours) of the same compound?
A: 7.1

Q: And the “Reconstituted Solution pH” value ([1]; room temperature, 24 hours)?
A: 7.1

Q: What about the “Reconstituted Solution pH” value ([1]; room temperature, 48 hours) of the same compound?
A: 7.1

Q: What about the “Assay (HPLC) (calculated on anhydrous and chloride-free basis)” value ([1]; room temperature, 0 hours) of the same compound?
A: 615 mg

Q: And the “Assay (HPLC) (calculated on anhydrous and chloride-free basis)” value ([1]; room temperature, 6 hours)?
A: 610 mg

Q: What about the “Assay (HPLC) (calculated on anhydrous and chloride-free basis)” value ([1]; room temperature, 24 hours) of the same compound?
A: 621 mg

Q: What about the “Assay (HPLC) (calculated on anhydrous and chloride-free basis)” value ([1]; room temperature, 48 hours) of the same compound?
A: 626 mg

Q: What about the Light sensitivity ([1]; reconstituted solution, normal day-light, up to 48 hours) of the same compound?
A: not observed

Q: And the Degradation products formed ([1]; reconstituted solution, room temperature, 48 hours)?
A: No degradation products were formed

Q: And the “Use-by date after preparation of the solution” value ([1]; reduced to avoid microbiological contamination)?
A: 27 h

Q: What about the “Stability in solution buffer” value [2] of the same compound?
A: very unstable
